Measurements from US11098055B2, “Ester ACC inhibitors and uses thereof” (Gilead Apollo, LLC, priority 2015, dated 2021).
Values after ≈ are worked out from the molar mass of the structure shown. Like-named read-outs stand apart in the source and are kept apart here.

Key:
Assay type in all cases: cell-based
[1] = test system: Phytophthora capsici (Pc); test: Growth inhibition assay of fungal pathogens; conditions: 48 h, read-out: Concentration at 90% Inhibition Pc
Description: (§1) Compounds of the present invention were evaluated in a growth inhibition assay to determine the ability to control the growth of fungal pathogens, such as Botrtyis cinerea (Bc), Collectotrichum graminicola (Cg), Diplodia maydis (Dm), Fusarium moniliforme (Fm), Fusarium virguhforme (Fv), Phytophthora capsici (Pc), Rhizoctonia solani (Rs), and Septoria tritici (St). Compounds to be tested were dissolved in DMSO at 2.5 mg/ml to produce compound stock solutions (“stocks”). Stocks were diluted with DMSO by a five-fold dilution in a 96-well stock plate, and two sets of final concentrations of 50, 10, and 2 ppm or 2, 0.4, and 0.08 ppm were obtained in vitro. A set of positive controls was also prepared, with various concentrations of Soraphen (2, 0.4, and 0.08 ppm), Metalaxyl (1.1, 0.22, and 0.04 ppm), and Metconazole (2, 0.4, and 0.08 ppm or 0.2, 0.04, and 0.008 ppm) after the five-fold dilutions. Negative controls on each plate included 2% DMSO, water, and a blank (media+2% DMSO). Fungal spores were isolated from previously sub-cultured plates of Botrtyis cinerea (Bc), Collectotrichum graminicola (Cg), Diplodia maydis (Dm), Fusarium moniliforme (Fm), Fusarium virguliforme (Fv), Phytophthora capsici (Pc), and Septoria tritici (St). The isolated spores were diluted to individual concentrations with a 17% V8 liquid media. For Rhizoctonia solani (Rs) and Pythium irregulare, 1.5 mm mycelial plugs were used in place of spores and ¼ Potato Dextrose Broth (PDB) was used for dilution. The spore concentrations and plug sizes were based on growth curves generated at 48 hours for each pathogen. In a second 96-well plate, the spores or mycelial plugs, media, diluted compound solutions, and controls were combined. Once the compound was added, a true final concentration of compound in each well was measured by an OD600 reading, which adjusted for any compound precipitation that might have occurred in the well. Plate readings were repeated at both 24 and 48 hours. The blank negative control was used as a background subtraction. Additional visual ratings were performed at both 24 and 48 hours for checking on precipitation and confirming efficacy. Visual and OD600 ratings of the compounds at 48 hours were compared to the 2% DMSO negative control, and the percent of pathogen growth inhibition was determined based on those values.

[2] = test system: Collectotrichum graminicola (Cg); test: Growth inhibition assay of fungal pathogens; conditions: 48 h, read-out: Concentration at 90% Inhibition Cg
Description: as §1

Septoria tritici (St) = test: Growth inhibition assay of fungal pathogens; conditions: Zymoseptoria tritici, 48 h, read-out: Concentration at 90% Inhibition St
Description: as §1

[3] = test system: Fusarium moniliforme (Fm); test: Growth inhibition assay of fungal pathogens; conditions: Fusarium verticillioides, 48 h, read-out: Concentration at 90% Inhibition Fm
Description: as §1

Botrtyis cinerea (Bc) = test: Growth inhibition assay of fungal pathogens; conditions: 48 h, read-out: Concentration at 90% Inhibition Bc
Description: as §1

Rhizoctonia solani (Rs) = test: Growth inhibition assay of fungal pathogens; conditions: 48 h, read-out: Concentration at 90% Inhibition Rs
Description: as §1

Diplodia maydis (Dm) = test: Growth inhibition assay of fungal pathogens; conditions: Stenocarpella maydis, 48 h, read-out: Concentration at 90% Inhibition Dm
Description: as §1

[4] = test system: Fusarium virguliforme (Fv); test: Growth inhibition assay of fungal pathogens; conditions: 48 h, read-out: Concentration at 90% Inhibition Fv
Description: as §1

[5] = test system: C. parapsilosis ATCC 22019; test: Anti-Fungal (Candida) Activity Assay, broth microtiter MIC; conditions: Lodderomyces parapsilosis, ATCC22019, 48 h, 3 replicates, MIC read at 48 h
Description: (§2) Compounds of the present invention were evaluated in an Anti-Fungal Activity Assay. An exemplary procedure for the assay, which measures the susceptibility of various Candida species to anti-fungal compounds, follows. Compounds to be tested (including fluconazole and amphotericin B) were dissolved in DMSO to obtain a solution having a concentration of 1 mg/mL. These stock solutions were sterile filtered using a 0.22 um nylon syringe filter, then diluted in sterile water to achieve a final concentration of 128 μg/mL.
(§3) All species were grown from frozen stock by directly plating on to freshly prepared Sabouraud Dextrose agar (BD, Difco) and incubated overnight in ambient air at 35° C. for 24 h. A direct suspension was prepared in RPMI 1640+MOPS (Lonza, Biowhittaker) by taking individual colonies from the overnight cultures using sterile swabs soaked in sterile saline. The concentration of the suspension was determined using pre-determined standard curves. These suspensions were then diluted down to 5×10^3 CFU/mL to achieve a final concentration of 2.5×10^3 CFU/mL once added to the microtiter plate as per CLSI guidelines (M27-A3, Vol. 28 No. 14).
(§4) Broth microtiter MIC challenge plates were prepared following CLSI guidelines (M27-A3, Vol. 28 No. 14). The original CLSI guidelines focused on reading Candida MICs after 48 h of incubation. As reading after only 24 h offers a clear advantage of patient care, QC limits are being established for all drugs at 24 h. That being said there are no known interpretive breakpoints for amphotericin B at 24 h and the current fluconazole interpretive breakpoints are based on a 48 h reading. The MIC for the test compounds were recorded at 48 h. All MIC determinations were achieved by visually comparing the growth found in the antibiotic challenged wells to that of the growth control.

C. albicans ATCC 90028 = test: as above; conditions: ATCC90028, 48 h, 3 replicates, MIC read at 48 h
Description: as §2, §3, §4

Row | SMILES | IC90 ([1]; Table 4a) | IC90 ([1]; Table 4b) | IC90 ([2]; Table 4a) | IC90 ([2]; Table 4b) | IC90 (Septoria tritici (St); Table 4a) | IC90 (Septoria tritici (St); Table 4b) | IC90 ([3]; Table 4a) | IC90 ([3]; Table 4b) | IC90 (Botrtyis cinerea (Bc); Table 4a) | IC90 (Botrtyis cinerea (Bc); Table 4b) | IC90 (Rhizoctonia solani (Rs); Table 4a) | IC90 (Rhizoctonia solani (Rs); Table 4b) | IC90 (Diplodia maydis (Dm); Table 4a) | IC90 (Diplodia maydis (Dm); Table 4b) | IC90 ([4]; Table 4a) | IC90 ([4]; Table 4b) | MIC ([5]; Table 3a) | MIC ([5]; Table 3b (additional results)) | MIC (C. albicans ATCC 90028; Table 3a) | MIC (C. albicans ATCC 90028; Table 3b (additional results))
1 | CCOC(=O)c1sc2c(c1C)c(=O)n(C(C)(C)C(=O)N1CCCCC1)c(=O)n2C[C@H](OC1CCOCC1)c1ccccc1OC [Compound I-2, ethyl (R)-1-(2-(2-methoxyphenyl)-2-((tetrahydro-2H-pyran-4-yl)oxy)ethyl)-5-methyl-3-(2-methyl-1-oxo-1-(piperidin-1-yl)propan-2-yl)-2,4-dioxo-1,2,3,4-tetrahydrothieno[2,3-d]pyrimidine-6-carboxylate] | ≥ 50 µg/mL | ≥ 50 µg/mL | 0.4 µg/mL (≈ 0.623 µM) | 0.4 µg/mL (≈ 0.623 µM) | ≥ 50 µg/mL | 10 µg/mL (≈ 15.6 µM) | 0.4 µg/mL (≈ 0.623 µM) | 0.4 µg/mL (≈ 0.623 µM) | 0.4 µg/mL (≈ 0.623 µM) | 0.4 µg/mL (≈ 0.623 µM) | 2 µg/mL (≈ 3.12 µM) | 0.4 µg/mL (≈ 0.623 µM) | 2 µg/mL (≈ 3.12 µM) | 2 µg/mL (≈ 3.12 µM) | 0.4 µg/mL (≈ 0.623 µM) | 0.4 µg/mL (≈ 0.623 µM) | 0.25 to 1 µg/mL (≈ 0.39 to 1.56 µM) | 0.25 to 1 µg/mL (≈ 0.39 to 1.56 µM) | 0.25 to 1 µg/mL (≈ 0.39 to 1.56 µM) | 0.25 to 1 µg/mL (≈ 0.39 to 1.56 µM)
2 | CCOC(=O)c1sc2c(c1C)c(=O)n(C(C)(C)C(=O)N1CCCC1)c(=O)n2C[C@H](OC1CCOCC1)c1ccccc1OC [Compound I-3, ethyl (R)-1-(2-(2-methoxyphenyl)-2-((tetrahydro-2H-pyran-4-yl)oxy)ethyl)-5-methyl-3-(2-methyl-1-oxo-1-(pyrrolidin-1-yl)propan-2-yl)-2,4-dioxo-1,2,3,4-tetrahydrothieno[2,3-d]pyrimidine-6-carboxylate] | ≥ 50 µg/mL | ≥ 50 µg/mL | 0.4 µg/mL (≈ 0.637 µM) | 0.4 µg/mL (≈ 0.637 µM) | ≥ 50 µg/mL | ≥ 50 µg/mL | 0.08 µg/mL (≈ 0.127 µM) | 0.08 µg/mL (≈ 0.127 µM) | 2 µg/mL (≈ 3.19 µM) | 2 µg/mL (≈ 3.19 µM) | 0.4 µg/mL (≈ 0.637 µM) | 0.4 µg/mL (≈ 0.637 µM) | 2 µg/mL (≈ 3.19 µM) | 2 µg/mL (≈ 3.19 µM) | 0.4 µg/mL (≈ 0.637 µM) | 0.4 µg/mL (≈ 0.637 µM) | 0.25 to 1 µg/mL (≈ 0.398 to 1.59 µM) | 0.25 to 1 µg/mL (≈ 0.398 to 1.59 µM) | 0.25 to 1 µg/mL (≈ 0.398 to 1.59 µM) | 0.25 to 1 µg/mL (≈ 0.398 to 1.59 µM)
3 | CCNC(=O)C(C)(C)n1c(=O)c2c(C)c(C(=O)OCC)sc2n(C[C@H](OC(C)C)c2ccccc2OC)c1=O [Compound I-4, (R)-ethyl 3-(1-(ethylamino)-2-methyl-1-oxopropan-2-yl)-1-(2-isopropoxy-2-(2-methoxyphenyl)ethyl)-5-methyl-2,4-dioxo-1,2,3,4-tetrahydrothieno[2,3-d]pyrimidine-6-carboxylate] | ≥ 50 µg/mL | ≥ 50 µg/mL | ≥ 50 µg/mL | 10 µg/mL (≈ 17.9 µM) | ≥ 50 µg/mL | ≥ 50 µg/mL | 0.4 µg/mL (≈ 0.715 µM) | 0.4 µg/mL (≈ 0.715 µM) | 2 µg/mL (≈ 3.57 µM) | 2 µg/mL (≈ 3.57 µM) | ≥ 50 µg/mL | ≥ 50 µg/mL | ≥ 50 µg/mL | 10 µg/mL (≈ 17.9 µM) | 2 µg/mL (≈ 3.57 µM) | 2 µg/mL (≈ 3.57 µM) | > 4.1 µg/mL | 2.1 to 4 µg/mL (≈ 3.75 to 7.15 µM) | 2.1 to 4 µg/mL (≈ 3.75 to 7.15 µM) | 2.1 to 4 µg/mL (≈ 3.75 to 7.15 µM)
4 | CCOC(=O)c1sc2c(c1C)c(=O)n(C(C)(C)C(=O)N1CCOCC1)c(=O)n2C[C@H](OC(C)C)c1ccccc1OC [Compound I-5, (R)-ethyl 1-(2-isopropoxy-2-(2-methoxyphenyl)ethyl)-5-methyl-3-(2-methyl-1-morpholino-1-oxopropan-2-yl)-2,4-dioxo-1,2,3,4-tetrahydrothieno[2,3-d]pyrimidine-6-carboxylate] | ≥ 50 µg/mL | ≥ 50 µg/mL | ≥ 50 µg/mL | 10 µg/mL (≈ 16.6 µM) | ≥ 50 µg/mL | ≥ 50 µg/mL | 0.4 µg/mL (≈ 0.665 µM) | 0.4 µg/mL (≈ 0.665 µM) | 0.4 µg/mL (≈ 0.665 µM) | 0.4 µg/mL (≈ 0.665 µM) | ≥ 50 µg/mL | ≥ 50 µg/mL | 2 µg/mL (≈ 3.32 µM) | 2 µg/mL (≈ 3.32 µM) | ≥ 50 µg/mL | 10 µg/mL (≈ 16.6 µM) | > 4.1 µg/mL | 2.1 to 4 µg/mL (≈ 3.49 to 6.65 µM) | > 4.1 µg/mL | > 4.1 µg/mL
5 | CCOC(=O)c1sc2c(c1C)c(=O)n(C(C)(C)C(=O)N1CCCCC1)c(=O)n2C[C@H](OC(C)C)c1ccccc1OC [Compound I-6, (R)-ethyl 1-(2-isopropoxy-2-(2-methoxyphenyl)ethyl)-5-methyl-3-(2-methyl-1-oxo-1-(piperidin-1-yl)propan-2-yl)-2,4-dioxo-1,2,3,4-tetrahydrothieno[2,3-d]pyrimidine-6-carboxylate] | ≥ 50 µg/mL | ≥ 50 µg/mL | 0.4 µg/mL (≈ 0.667 µM) | 0.4 µg/mL (≈ 0.667 µM) | 10 µg/mL (≈ 16.7 µM) | 2 µg/mL (≈ 3.33 µM) | 0.08 µg/mL (≈ 0.133 µM) | 0.08 µg/mL (≈ 0.133 µM) | 0.4 µg/mL (≈ 0.667 µM) | 0.4 µg/mL (≈ 0.667 µM) | 0.4 µg/mL (≈ 0.667 µM) | 0.4 µg/mL (≈ 0.667 µM) | 0.4 µg/mL (≈ 0.667 µM) | 0.4 µg/mL (≈ 0.667 µM) | 0.4 µg/mL (≈ 0.667 µM) | 0.4 µg/mL (≈ 0.667 µM) | > 4.1 µg/mL | 2.1 to 4 µg/mL (≈ 3.5 to 6.67 µM) | 2.1 to 4 µg/mL (≈ 3.5 to 6.67 µM) | 2.1 to 4 µg/mL (≈ 3.5 to 6.67 µM)
